In patent US20230340037A1, “INHIBITORS OF ?-SYNUCLEIN AGGREGATION AND USES THEREOF” (U[…] DE BARCELONA, priority 2020, published 2023):

Experiments:
[1] = test system: SH-SY5Y neuroblastoma cells; test: Toxic a-synuclein oligomer induced increase of intracellular reactive oxygen species; assay type: cell-based, human
Protocol: A stock solution of 80 μM toxic a-synuclein oligomer (prepared as described in example 3) and a stock solution of 80 μM toxic a-synuclein oligomer and 80 μM of the tested inhibitor are prepared in PBS and incubated for 15 min at 20° C. before being added to cell-containing wells as described below.
Human SH-SY5Y neuroblastoma cells (ATCC, #CRL-2266) cultured in growth medium (Eagle's Minimum Essential Medium (EMEM) supplemented with 10% […] (FBS)) are seeded onto a glass slide mounted with 8 removable wells (e.g., Nunc Lab-Tek II Chamber Slide System, #154941) with 0.5 mL cells/well at 0.5×10^6 cells/mL in growth medium for 24 h at 37° C. and 5% C02. […]
Then, a fluorogenic reagent for oxidative stress detection in live cells (e.g., a CellRox® reagent from Invitrogen, Carlsbad, USA, such as CellRox® Green) is added (final concentration of CellRox® Green 5 μM). […] The intracellular fluorescence of the treated SH-SY5Y cells is then analyzed with a confocal microscope (e.g. a Leica TCS SP5, Leica Microsystems, Wetzlar, Germany, with a HCX PL APO 63×1.4 oil immersion objective) equipped with a camera, using wave lengths for excitation and detection which are suitable for the used oxidative stress detection agent (for CellRox® Green: excitation at 488 nm and detection at 515-560 nm). […] ROS fluorescence are calculated from mean of 100 cells.

[2] = biological target: T1, toxic a-synuclein oligomer (type B*) (Homo sapiens, UniProt P37840, N122C); test: dcFCCS and smFRET analysis of binding to toxic a-synuclein oligomer; conditions: peptide labeled with Atto647N; cross-correlation signal and smFRET events
T1 construct: made in house; host or cells: Escherichia coli BL21 (DE3), pET21a
Protocol: (§1) The relative binding affinities of inhibitors of the present disclosure to toxic a-synuclein oligomers, a-synuclein fibrils, and monomeric a-synuclein can be determined via […] (dcFCCS) as follows.
(§2) Dual-Colour FCCS (dcFCCS) experiments are performed on a Time-Resolved Fluorescence confocal microscope (e.g., MT200 from PicoQuant, Berlin, Germany) with a Time-Correlated Single Photon Counting (TCSPC) unit. Pulsed Interleaved Excitation (PIE) is used at laser powers of 6 μW (481 nm) and 5 μW (637 nm) measured after the dichroic mirror for optimal count rates while avoiding photobleaching and saturation. The coverslip is placed directly on the immersion water on top of the objective (e.g., Super Apochromat 60×NA 1.2 objective with a correction collar). The dichroic 488/640 nm is chosen as the main beam splitter. A 50 μm pinole is used. The emission light beam is split by a 50/50 beamsplitter into 2 detection paths. […] The software is also used for fitting the FCS and FCCS data as well as for a PIE-FRET analysis of the data from which the FRET efficiency (E) is calculated.
(§3) The binding of inhibitors of the present disclosure to toxic a-synuclein oligomers, a-synuclein fibrils, and monomeric a-synuclein can be determined via Förster resonance energy transfer (smFRET) as follows. […]

a-synuclein fibrils = biological target: T2, a-synuclein fibrils (Homo sapiens, UniProt P37840, N122C); test: dcFCCS and smFRET analysis of binding to a-synuclein fibrils; conditions: peptide labeled with Atto647N; cross-correlation signal and smFRET events
T2 construct: made in house; host or cells: Escherichia coli BL21 (DE3), pET21a
Protocol: as §1, §2, §3

a-synuclein monomer = biological target: T3, a-synuclein monomer (Homo sapiens, UniProt P37840, N122C); test: dcFCCS and smFRET analysis of binding to a-synuclein monomer; conditions: peptide labeled with Atto647N
T3 construct: made in house; host or cells: Escherichia coli BL21 (DE3), pET21a
Protocol: as §1, §2, §3

[3] = biological target: T4, non-toxic a-synuclein oligomer (type A*) (Homo sapiens, UniProt P37840, N122C); test: dcFCCS and smFRET analysis of binding to non-toxic a-synuclein oligomer; conditions: peptide labeled with Atto647N
T4 construct: made in house; host or cells: Escherichia coli BL21 (DE3), pET21a

a-synuclein = biological target: T5, a-synuclein (Homo sapiens, UniProt P37840); test: a-synuclein aggregation kinetics assay (thioflavin-T); assay type: biochemical; conditions: 70 μM a-synuclein, Th-T, equimolar and substoichiometric peptide concentrations, 32 h
T5 construct: made in house; host or cells: Escherichia coli BL21 (DE3), pET21a
Protocol: a-synuclein aggregation can be monitored as described in Pujols et al., 2018. Specifically, inhibition of in vitro a-synuclein aggregation at equimolar concentrations of a-synuclein and the tested inhibitor can be determined as follows:
A 96 well microtiter plate is prepared to contain, in each well, a Teflon polyball (3.175 mm in diameter, e.g., from Polysciences Europe GmbH, Eppelheim, Germany) and 150 μl of PBS containing 70 μM a-synuclein (prepared from diluting the 0.22 μm-filtered 210 μM a-synuclein solution described in example 1), 40 μM thioflavin-T and 70 μM of the tested inhibitor. 150 μl/well of PBS containing 70 μM a-synuclein and 40 μM thioflavin-T is used as a control. […] Every two hours, the fluorescence intensity is measured (e.g. using a Victor3.0 Multilabel Reader, PerkinElmer Waltham, MA, USA) by exciting the mixtures at 430-450 nm and measuring the emission intensity at 480-510 nm. […]
Parallel wells (e.g. triplicates) are prepared for each tested inhibitor and the control. For the measurement of each time interval, the measured fluorescence intensity of the respective parallel wells is averaged and then normalized to the maximum fluorescence of the control (a-synuclein without inhibitor) and fitted to the Finke-Watzky curve, accounting for fibril elongation and secondary nucleation. […]

Row | Compound | cytotoxicity of toxic aS oligomers ([1]; neuroblastoma cell culture) | interaction with toxic a-synuclein oligomer [2] | interaction with a-synuclein fibrils (a-synuclein fibrils) | interaction with a-synuclein monomer (a-synuclein monomer) | interaction with non-toxic a-synuclein oligomer [3] | inhibition of a-synuclein aggregation (a-synuclein) | generation of reactive oxygen species ([1]; coincubated with a-synuclein toxic oligomers, 10 μM)
1 | CSCC[C@H](N)C(=O)N[C@@H](CCC(=O)O)C(=O)N[C@@H](Cc1ccccc1)C(=O)N[C@H](C(=O)N[C@@H](C)C(=O)N[C@@H](CCCCN)C(=O)N[C@@H](CC(C)C)C(=O)N[C@@H](Cc1ccccc1)C(=O)N[C@@H](CCCCN)C(=O)N[C@@H](Cc1ccccc1)C(=O)N[C@@H](Cc1ccccc1)C(=O)N[C@@H](CCCCN)C(=O)N[C@@H](CC(=O)O)C(=O)N[C@@H](CC(C)C)C(=O)N[C@@H](CC(C)C)C(=O)NCC(=O)N[C@@H](CCCCN)C(=O)N[C@@H](Cc1ccccc1)C(=O)N[C@@H](CC(C)C)C(=O)NCC(=O)N[C@@H](CC(N)=O)C(=O)N[C@@H](CC(N)=O)C(=O)O)C(C)C [PSMα3] | reduced cytotoxicity | – | – | – | – | – | –
2 | LL-37 | – | interact with | interact with | not | not | inhibit a-synuclein aggregation | reduce the generation of reactive oxygen species
